Measurements taken from patent US20160122320A1, “USEFUL COMBINATIONS OF MONOBACTAM ANTIBIOTICS WITH BETA-LACTAMASE INHIBITORS” (Basilea Pharmaceutica AG, priority 2005, published 2016).

Assays:
Assay in all cases: MIC, NCCLS broth microdilution
Format in all cases: cell-based
[1] = system: Stenotrophomonas malthophilia 1AC736; details: Stenotrophomonas maltophilia 1AC736
Enterobacter cloacae P99 = system: Enterobacter cloacae P99
Experimental: (§2) Antimicrobial activity of the compounds and of their combinations was determined against a selection of organisms according to the standard procedures described by the National Committee for Clinical Laboratory Standards (National Committee for Clinical Laboratory. Standards (2000). Methods for Dilution Antimicrobial Susceptibility Tests for Bacteria That Grow Aerobically-Fifth Edition: Approved Standard M7-A5. NCCLS, Wayne, Pa., USA).
(§3) In all cases the final concentration of DMSO incubated with the bacteria is less than or equal to 1%. […] Plates were incubated overnight at an appropriate temperature (30° C. or 37° C.) and optical densities assessed by eye. The MIC value is defined as the lowest compound concentration completely inhibiting visible growth of the test organism. When combinations between compounds of formula I with compounds of formula II and are evaluated the compounds of formula I are tested in dilution series as described above while the compounds of formula II and III-XIII were present in all wells at a constant concentration of 4 μg/mL each.

Serratia marcescens S6 = system: Serratia marcescens S6
[2] = system: Klebsiella pneumoniae CF104
Experimental: as §2, §3

[3] = system: Pseudomonas aeruginosa MK1184
[4] = system: Enterobacter aerogenes Zayakosky; details: Enterobacter aerogenes Zayakosky 5
Experimental: as §2, §3

[5] = system: Pseudomonas aeruginosa 1973E
Method in brief: (§1)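 Growth inhibition read by eye after overnight incubation (30° C. or 37° C.) defines the MIC, using NCCLS M7-A5 broth microdilution with ≤1% DMSO. When combinations were tested, only the formula I compound was titrated and each partner was fixed at 4 μg/mL.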

[6] = system: Acinetobacter baumannii J51
Method in brief: as §1

Acinetobacter sp. J2 = details: Acinetobacter baumannii J2
[7] = with clavulanate (clavulanic acid)

CC1(C)[C@H](NC(=O)/C(=N\OCc2cc(=O)c(O)cn2O)c2csc(N)n2)C(=O)N1OS(=O)(=O)O [Compound 26, (3S)-3-{(2Z)-2-(2-amino(1,3-thiazol-4-yl))-3-[(1,5-dihydroxy-4-oxo(2-hydropyridyl))methoxy]-3-azaprop-2-enoylamino}-4,4-dimethyl-2-oxoazetidinyl hydroxysulfonate]
MIC of antibiotic ([1]; antibiotic alone, no inhibitor): <0.06 µg/mL
MIC of antibiotic at fixed inhibitor concentration of 4 mg/L ([1]; with 102 and clavulanate): 0.25 µg/mL
MIC of antibiotic at fixed inhibitor concentration of 4 mg/L ([1]; with 102 and sulbactam): 0.25 µg/mL
MIC of antibiotic at fixed inhibitor concentration of 4 mg/L ([1]; with 102 only): 0.25 µg/mL
MIC of antibiotic at fixed inhibitor concentration of 4 mg/L ([1]; with 324 and clavulanate): 0.25 µg/mL
MIC of antibiotic at fixed inhibitor concentration of 4 mg/L ([1]; with 324 and sulbactam): 0.25 µg/mL
MIC of antibiotic at fixed inhibitor concentration of 4 mg/L ([1]; with 324 only): 0.25 µg/mL
MIC of antibiotic at fixed inhibitor concentration of 4 mg/L ([1]; with 501): 0.125 µg/mL
MIC of antibiotic at fixed inhibitor concentration of 4 mg/L ([1]; with BRL427158): 0.125 µg/mL
MIC of antibiotic at fixed inhibitor concentration of 4 mg/L [1, 7]: ≦0.06 mg/L
MIC of antibiotic at fixed inhibitor concentration of 4 mg/L ([1]; with sulbactam): ≦0.06 mg/L
MIC of antibiotic at fixed inhibitor concentration of 4 mg/L ([1]; with tazobactam): ≦0.06 mg/L
MIC of antibiotic (Enterobacter cloacae P99; antibiotic alone, no inhibitor): 16 µg/mL
MIC of antibiotic at fixed inhibitor concentration of 4 mg/L (Enterobacter cloacae P99; with 102 and clavulanate): 2 µg/mL
MIC of antibiotic at fixed inhibitor concentration of 4 mg/L (Enterobacter cloacae P99; with 102 and sulbactam): 2 µg/mL
MIC of antibiotic at fixed inhibitor concentration of 4 mg/L (Enterobacter cloacae P99; with 102 only): 1 µg/mL
MIC of antibiotic at fixed inhibitor concentration of 4 mg/L (Enterobacter cloacae P99; with 324 and clavulanate): 1 µg/mL
MIC of antibiotic at fixed inhibitor concentration of 4 mg/L (Enterobacter cloacae P99; with 324 and sulbactam): 2 µg/mL
MIC of antibiotic at fixed inhibitor concentration of 4 mg/L (Enterobacter cloacae P99; with 324 only): 2 µg/mL
MIC of antibiotic at fixed inhibitor concentration of 4 mg/L (Enterobacter cloacae P99; with 501): 2 µg/mL
MIC of antibiotic at fixed inhibitor concentration of 4 mg/L (Enterobacter cloacae P99; with BRL427158): 2 µg/mL
MIC of antibiotic at fixed inhibitor concentration of 4 mg/L (Enterobacter cloacae P99; [7]): 8 µg/mL
MIC of antibiotic at fixed inhibitor concentration of 4 mg/L (Enterobacter cloacae P99; with sulbactam): 8 µg/mL
MIC of antibiotic at fixed inhibitor concentration of 4 mg/L (Enterobacter cloacae P99; with tazobactam): 16 µg/mL
MIC of antibiotic (Serratia marcescens S6; antibiotic alone, no inhibitor): <0.06 µg/mL
MIC of antibiotic at fixed inhibitor concentration of 4 mg/L (Serratia marcescens S6; with 102 and clavulanate): ≦0.06 mg/L
MIC of antibiotic at fixed inhibitor concentration of 4 mg/L (Serratia marcescens S6; with 102 and sulbactam): <0.06 µg/mL
MIC of antibiotic at fixed inhibitor concentration of 4 mg/L (Serratia marcescens S6; with 102 only): ≦0.06 mg/L
MIC of antibiotic at fixed inhibitor concentration of 4 mg/L (Serratia marcescens S6; with 324 and clavulanate): <0.06 µg/mL
MIC of antibiotic at fixed inhibitor concentration of 4 mg/L (Serratia marcescens S6; with 324 and sulbactam): <0.06 µg/mL
MIC of antibiotic at fixed inhibitor concentration of 4 mg/L (Serratia marcescens S6; with 324 only): ≦0.06 mg/L
MIC of antibiotic at fixed inhibitor concentration of 4 mg/L (Serratia marcescens S6; with 501): ≦0.06 mg/L
MIC of antibiotic at fixed inhibitor concentration of 4 mg/L (Serratia marcescens S6; with BRL427158): ≦0.06 mg/L
MIC of antibiotic at fixed inhibitor concentration of 4 mg/L (Serratia marcescens S6; [7]): ≦0.06 mg/L
MIC of antibiotic at fixed inhibitor concentration of 4 mg/L (Serratia marcescens S6; with sulbactam): ≦0.06 mg/L
MIC of antibiotic at fixed inhibitor concentration of 4 mg/L (Serratia marcescens S6; with tazobactam): ≦0.06 mg/L
MIC of antibiotic ([2]; antibiotic alone, no inhibitor): 32 µg/mL
MIC of antibiotic at fixed inhibitor concentration of 4 mg/L ([2]; with 102 and clavulanate): 0.25 µg/mL
MIC of antibiotic at fixed inhibitor concentration of 4 mg/L ([2]; with 102 and sulbactam): 1 µg/mL
MIC of antibiotic at fixed inhibitor concentration of 4 mg/L ([2]; with 102 only): 16 µg/mL
MIC of antibiotic at fixed inhibitor concentration of 4 mg/L ([2]; with 324 and clavulanate): 0.25 µg/mL
MIC of antibiotic at fixed inhibitor concentration of 4 mg/L ([2]; with 324 and sulbactam): 1 µg/mL
MIC of antibiotic at fixed inhibitor concentration of 4 mg/L ([2]; with 324 only): 16 µg/mL
MIC of antibiotic at fixed inhibitor concentration of 4 mg/L ([2]; with 501): 1 µg/mL
MIC of antibiotic at fixed inhibitor concentration of 4 mg/L ([2]; with BRL427158): 0.125 µg/mL
MIC of antibiotic at fixed inhibitor concentration of 4 mg/L [2, 7]: 0.5 µg/mL
MIC of antibiotic at fixed inhibitor concentration of 4 mg/L ([2]; with sulbactam): 1 µg/mL
MIC of antibiotic at fixed inhibitor concentration of 4 mg/L ([2]; with tazobactam): 1 µg/mL
MIC of antibiotic ([3]; antibiotic alone, no inhibitor): 2 µg/mL
MIC of antibiotic at fixed inhibitor concentration of 4 mg/L ([3]; with 102 and clavulanate): 2 µg/mL
MIC of antibiotic at fixed inhibitor concentration of 4 mg/L ([3]; with 102 and sulbactam): 2 µg/mL
MIC of antibiotic at fixed inhibitor concentration of 4 mg/L ([3]; with 102 only): 2 µg/mL
MIC of antibiotic at fixed inhibitor concentration of 4 mg/L ([3]; with 324 and clavulanate): 2 µg/mL
MIC of antibiotic at fixed inhibitor concentration of 4 mg/L ([3]; with 324 and sulbactam): 2 µg/mL
MIC of antibiotic at fixed inhibitor concentration of 4 mg/L ([3]; with 324 only): 4 µg/mL
MIC of antibiotic at fixed inhibitor concentration of 4 mg/L ([3]; with 501): 2 µg/mL
MIC of antibiotic at fixed inhibitor concentration of 4 mg/L ([3]; with BRL427158): 2 µg/mL
MIC of antibiotic at fixed inhibitor concentration of 4 mg/L [3, 7]: 4 µg/mL
MIC of antibiotic at fixed inhibitor concentration of 4 mg/L ([3]; with sulbactam): 4 µg/mL
MIC of antibiotic at fixed inhibitor concentration of 4 mg/L ([3]; with tazobactam): 4 µg/mL
MIC of antibiotic ([4]; antibiotic alone, no inhibitor): 16 µg/mL
MIC of antibiotic at fixed inhibitor concentration of 4 mg/L ([4]; with 102 and clavulanate): 4 µg/mL
MIC of antibiotic at fixed inhibitor concentration of 4 mg/L ([4]; with 102 only): 8 µg/mL
MIC of antibiotic at fixed inhibitor concentration of 4 mg/L ([4]; with 324 and clavulanate): 4 µg/mL
MIC of antibiotic at fixed inhibitor concentration of 4 mg/L ([4]; with 324 only): 4 µg/mL
MIC of antibiotic at fixed inhibitor concentration of 4 mg/L ([4]; with 501): 16 µg/mL
MIC of antibiotic at fixed inhibitor concentration of 4 mg/L ([4]; with BRL427158): 0.5 µg/mL
MIC of antibiotic at fixed inhibitor concentration of 4 mg/L ([4]; with clavulanic acid): 8 µg/mL
MIC of antibiotic at fixed inhibitor concentration of 4 mg/L ([4]; with sulbactam): 16 µg/mL
MIC of antibiotic at fixed inhibitor concentration of 4 mg/L ([4]; with tazobactam): 16 µg/mL
MIC of antibiotic ([5]; antibiotic alone, no inhibitor): 16 µg/mL
MIC of antibiotic at fixed inhibitor concentration of 4 mg/L ([5]; with 102 and clavulanate): 2 µg/mL
MIC of antibiotic at fixed inhibitor concentration of 4 mg/L ([5]; with 102 and sulbactam): 4 µg/mL
MIC of antibiotic at fixed inhibitor concentration of 4 mg/L ([5]; with 102 only): 2 µg/mL
MIC of antibiotic at fixed inhibitor concentration of 4 mg/L ([5]; with 324 and clavulanate): 2 µg/mL
MIC of antibiotic at fixed inhibitor concentration of 4 mg/L ([5]; with 324 and sulbactam): 2 µg/mL
MIC of antibiotic at fixed inhibitor concentration of 4 mg/L ([5]; with 324 only): 4 µg/mL
MIC of antibiotic at fixed inhibitor concentration of 4 mg/L ([5]; with 501): 2 µg/mL
MIC of antibiotic at fixed inhibitor concentration of 4 mg/L ([5]; with BRL427158): 2 µg/mL
MIC of antibiotic at fixed inhibitor concentration of 4 mg/L [5, 7]: 2 µg/mL
MIC of antibiotic at fixed inhibitor concentration of 4 mg/L ([5]; with sulbactam): 2 µg/mL
MIC of antibiotic at fixed inhibitor concentration of 4 mg/L ([5]; with tazobactam): 2 µg/mL
MIC of antibiotic ([6]; antibiotic alone, no inhibitor): 4 µg/mL
MIC of antibiotic at fixed inhibitor concentration of 4 mg/L ([6]; with 102 and clavulanate): 4 µg/mL
MIC of antibiotic at fixed inhibitor concentration of 4 mg/L ([6]; with 102 only): 2 µg/mL
MIC of antibiotic at fixed inhibitor concentration of 4 mg/L ([6]; with 324 and clavulanate): 2 µg/mL
MIC of antibiotic at fixed inhibitor concentration of 4 mg/L ([6]; with 324 only): 2 µg/mL
MIC of antibiotic at fixed inhibitor concentration of 4 mg/L ([6]; with 501): 1 µg/mL
MIC of antibiotic at fixed inhibitor concentration of 4 mg/L ([6]; with BRL427158): 32 µg/mL
MIC of antibiotic at fixed inhibitor concentration of 4 mg/L ([6]; with clavulanic acid): 1 µg/mL
MIC of antibiotic at fixed inhibitor concentration of 4 mg/L ([6]; with sulbactam): 2 µg/mL
MIC of antibiotic at fixed inhibitor concentration of 4 mg/L ([6]; with tazobactam): 4 µg/mL
MIC of antibiotic (Acinetobacter sp. J2; antibiotic alone, no inhibitor): 4 µg/mL
MIC of antibiotic at fixed inhibitor concentration of 4 mg/L (Acinetobacter sp. J2; with 102 and clavulanate): 4 µg/mL
MIC of antibiotic at fixed inhibitor concentration of 4 mg/L (Acinetobacter sp. J2; with 102 and sulbactam): 2 µg/mL
MIC of antibiotic at fixed inhibitor concentration of 4 mg/L (Acinetobacter sp. J2; with 102 only): 4 µg/mL
MIC of antibiotic at fixed inhibitor concentration of 4 mg/L (Acinetobacter sp. J2; with 324 and clavulanate): 4 µg/mL
MIC of antibiotic at fixed inhibitor concentration of 4 mg/L (Acinetobacter sp. J2; with 324 and sulbactam): 2 µg/mL
MIC of antibiotic at fixed inhibitor concentration of 4 mg/L (Acinetobacter sp. J2; with 324 only): 4 µg/mL
MIC of antibiotic at fixed inhibitor concentration of 4 mg/L (Acinetobacter sp. J2; with 501): 0.5 µg/mL
MIC of antibiotic at fixed inhibitor concentration of 4 mg/L (Acinetobacter sp. J2; with BRL427158): 0.5 µg/mL
MIC of antibiotic at fixed inhibitor concentration of 4 mg/L (Acinetobacter sp. J2; [7]): >32 µg/mL
MIC of antibiotic at fixed inhibitor concentration of 4 mg/L (Acinetobacter sp. J2; with sulbactam): 2 µg/mL
MIC of antibiotic at fixed inhibitor concentration of 4 mg/L (Acinetobacter sp. J2; with tazobactam): 4 µg/mL
